Reference: US6579882B2, “Cell adhesion-inhibiting antiinflammatory compounds” (Abbott Laboratories, priority 1998, dated 2003)

| melting point | Compound |
| --- | --- |
| 60 to 62 °C (dec.) | O=C(NCCCl)c1cc2c(Oc3ccc(Cl)cc3)cncc2s1 |
| 151 to 152 °C | Clc1ccc(Oc2cncc3sc(-c4ncon4)cc23)cc1 (hydrate or solvate) [Example 287, 4-(4-Chlorophenoxy)-2-(1,2,4-oxadiazol-3-yl)thieno[2,3-c]pyridine] |
| 268 to 270 °C | Nc1nc(-c2cc3c(Oc4ccc(Cl)cc4)cncc3s2)no1 (hydrate or solvate) [Example 289, 3-[4-(4-Chlorophenoxy)thieno[2,3-c]pyridin-2-yl]-1,2,4-oxadiazol-5-amine] |
| 200 to 203 °C | CONC(=O)c1cc2c(Sc3ccc(C)cc3)cncc2s1 [Example 23, N-methoxy-4-[(4-methylphenyl)thio]thieno[2,3-c]pyridine-2-carboxamide] |
| 208 to 211 °C | Cc1ccc(Sc2cncc3sc(C(=O)Nc4ccc(Cl)cc4)cc23)cc1 [Example 24, N-(4-chlorophenyl)-4-[(4-methylphenyl)thio]thieno[2,3-c]pyridine-2-carboxamide] |
| 134 to 138 °C | CC(=O)c1cc2c(Sc3ccc(C)cc3)cncc2s1 [Example 33, 1-[4-[(4-methylphenyl)thio]thieno[2,3-c]pyridin-2-yl]ethanone] |
| 103 to 107 °C | Cc1ccc(Sc2cncc3sc(C(=O)c4ccccc4)cc23)cc1 [Example 34, 2-benzoyl-4-[(4-methylphenyl)thio]thieno[2,3-c]pyridine] |
| 209 to 213 °C | CC(=NO)c1cc2c(Sc3ccc(C)cc3)cncc2s1 [Example 36, 1-[4-[(4-methylphenyl)thio]thieno[2,3-c]pyridin-2-yl]ethanone, oxime] |
| 181 to 183 °C | Cc1ccc(Sc2cncc3sc(C(N)=S)cc23)cc1 [Example 41, 4-[(4-methylphenyl)thio]thieno[2,3-c]pyridine-2-carbothioamide] |
| 219 to 221 °C | COc1ccc(Sc2cncc3sc(C(N)=O)cc23)cc1 [Example 56, 4-[(4-methoxyphenyl)thio]thieno[2,3-c]pyridine-2-carboxamide] |
| 176 to 178 °C | NC(=O)/C=C/c1cc2c(Oc3ccc(Cl)cc3)cncc2s1 [Example 92, (E)-3-[4-(4-chlorophenoxy)thieno[2,3-c]pyridin-2-yl]-2-propenamide] |

The next lines start with the molecule.

| Compound | melting point |
| --- | --- |
| CCc1cc2c(Sc3ccc(C)cc3)ncnc2s1 [Example 2, 6-ethyl-4-[(4-methylphenyl)thio]thieno[2,3-d]pyrimidine] | 56 to 58 °C |
| CCc1cc2c(Sc3ccccn3)ncnc2s1 [Example 3, 6-ethyl-4-(2-pyridinylthio)thieno[2,3-d]pyrimidine] | 76.5 to 79 °C |
| CCc1cc2c(SCc3ccccc3)ncnc2s1 [Example 5, 6-ethyl-4-[(phenylmethyl)thio]thieno[2,3-d]pyrimidine] | 54 to 60 °C |
| CCc1cc2c(Sc3nnc(C)s3)ncnc2s1 [Example 6, 6-ethyl-4-[(5-methyl-1,3,4-thiadiazol-2-yl)thio]thieno[2,3-d]pyrimidine] | 132 to 135 °C |
| CCOC(=O)C1(CC)Cc2c(Sc3ccc(C)cc3)ncnc2S1 (centres unmarked) [Example 7, ethyl 6-ethyl-4-[(4-methylphenyl)thio]thieno[2,3-d]pyrimidine-6-carboxylate] | 87.5 to 90 °C |
| CCc1cc2c(Nc3nnc(C)s3)ncnc2s1 [Example 9, 6-ethyl-N-(5-methyl-1,3,4-thiadiazol-2-yl)thieno[2,3-d]pyrimidin-4-amine] | 277 to 280 °C |
| Cc1ccc(Sc2ncnc3c(C)csc23)cc1 [Example 11, 7-methyl-4-[(4-methylphenyl)thio]thieno[3,2-d]pyrimidine] | 103 to 107 °C |
| CSc1nnc(Sc2ncnc3c(C)csc23)s1 [Example 13, 7-methyl-4-[[5-(methylthio)-1,3,4-thiadiazol-2-yl]thio]thieno[3,2-d]pyrimidine] | 163 to 166 °C |
| Cc1csc2c(Sc3nnc(N)s3)ncnc12 [Example 14, 4-[(5-amino-1,3,4-thiadiazol-2-yl)thio]-7-methylthieno[3,2-d]pyrimidine] | 221 to 223 °C |
| CON(C)C(=O)c1cc2c(Sc3ccc(C)cc3)cncc2s1 [Example 22, N-methoxy-N-methyl-4-[(4-methylphenyl)thio]thieno[2,3-c]pyridine-2-carboxamide] | 103 to 107 °C |
| CON=Cc1cc2c(Sc3ccc(C)cc3)cncc2s1 [Example 26, 4-[(4-methylphenyl)thio]thieno[2,3-c]pyridine-2-carboxaldehyde, O-methyloxime] | 95 to 98 °C |
| Cc1ccc(Sc2cncc3sc(C=NOCc4ccccc4)cc23)cc1 [Example 27, 4-[(4-methylphenyl)thio]thieno[2,3-c]pyridine-2-carboxaldehyde, O-(phenylmethyl)oxime] | 127 to 133 °C |
| Cc1ccc(Sc2cncc3sc(C=NOCC(=O)O)cc23)cc1 [Example 28, 2-[[[4-[(4-methylphenyl)thio]thieno[2,3-c]pyridin-2-ylmethylene]amino]oxy]acetic acid] | 227 to 230 °C |
| Cc1ccc(Sc2cncc3sc(C=NOc4ccccc4)cc23)cc1 [Example 29, 4-[(4-methylphenyl)thio]thieno[2,3-c]pyridine-2-carboxaldehyde, O-phenyloxime] | 94 to 97 °C |
| Cc1ccc(Sc2cncc3sc(C=NO)cc23)cc1 [Example 30, 4-[(4-methylphenyl)thio]thieno[2,3-c]pyridine-2-carboxaldehyde, oxime] | 209 to 210 °C |
| Cc1ccc(Sc2cncc3sc(C=NOCC(N)=O)cc23)cc1 [Example 31, 2-[[[4-[(4-methylphenyl)thio]thieno[2,3-c]pyridine-2-ylmethylene]amino]oxy]acetamide] | 152 to 156 °C |
| Cc1ccc(Sc2cncc3sc(C(=O)NCC(O)CO)cc23)cc1 (centres unmarked) [Example 37, N-(2,3-dihydroxypropyl)-4-[(4-methylphenyl)thio]thieno[2,3-c]pyridine-2-carboxamide] | 120 to 122 °C |
| Cc1ccc(Sc2cncc3sccc23)cc1 [Example 42, 4-[(4-methylphenyl)thio]thieno[2,3-c]pyridine] | 94 to 95 °C |
| Cc1ccccc1Sc1cncc2sc(C(N)=O)cc12 [Example 48, 4-[(2-methylphenyl)thio]thieno[2,3-c]pyridine-2-carboxamide] | 170 to 172 °C |
| Cc1cccc(Sc2cncc3sc(C(N)=O)cc23)c1 [Example 49, 4-[(3-methylphenyl)thio]thieno[2,3-c]pyridine-2-carboxamide] | 171 to 173 °C |
| Cc1ccc(Sc2cncc3sc(C(N)=O)cc23)cc1C [Example 50, 4-[(3,4-dimethylphenyl)thio]thieno[2,3-c]pyridine-2-carboxamide] | 192 to 194 °C |
| Cc1cc(C)cc(Sc2cncc3sc(C(N)=O)cc23)c1 [Example 51, 4-[(3,5-dimethylphenyl)thio]thieno[2,3-c]pyridine-2-carboxamide] | 177 to 179 °C |
| Cc1ccc(Sc2cncc3sc(C(N)=O)cc23)c(C)c1 [Example 52, 4-[(2,4-dimethylphenyl)thio]thieno[2,3-c]pyridine-2-carboxamide] | 193 to 195 °C |
| NC(=O)c1cc2c(SC3CCCCC3)cncc2s1 [Example 57, 4-(cyclohexylthio)thieno[2,3-c]pyridine-2-carboxamide] | 205 to 207 °C |
